The results in this text go back to ChEMBL document CHEMBL1201862, “PubChem BioAssay data set” (2004).

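These data come from cells grown in 96-well plates and exposed to compound for 48 hours at five concentrations. Here, GI50 denotes the concentration required for 50% inhibition of growth.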 The source made the active and inactive calls. No stated cut-off is given here; in the data, active = GI50 up to about 1.1 µM and inactive = higher.

Test in all cases: NCI-60 cell line screen, 48 h
The test system of test [1] is BT-549.
Test [2] has as its system CAKI-1.
In test [3] the test system is CCRF-CEM.
The test system of test [4] is DU-145.
Test [5] relates to HCT-116.
Test [6] has as its system Hs-578T.
Test [7] concerns K562.
Test [8] has as its system KM12.
Test [9] concerns MDA-MB-231.
For test [10], the system named is MDA-N.
For test [11], the system named is NCI/ADR-RES.
Test [12] deals with SF-295.
Test [13] deals with SK-MEL-2.
Test [14] deals with SNB-19.
In test [15] the test system is SNB-75.
Test [16] deals with SR.
In test [17] the test system is TK-10.
For test [18], the system named is U-251.
For test [19], the system named is RXF 393.
Test [20] deals with MCF7.

Turning to `COc1cccc(C[C@H]2COC(=O)[C@]2(O)Cc2cccc(OC)c2)c1`, the GI50 was > 100 µM (inactive) in test [1]; 18.1 µM (inactive) in [2]; > 100 µM (inactive) in [3]; > 100 µM (inactive) in test [4]; > 100 µM (inactive) in test [5]; > 100 µM (inactive) in test [6]. Besides, the GI50 in test [7] was > 100 µM (inactive); in test [8], 91.2 µM (inactive); in test [9], > 100 µM (inactive); in test [10], > 100 µM (inactive); in test [11] it was 66.5 µM (inactive); in test [12], 83 µM (inactive). For the same compound, the GI50 in test [13] is > 100 µM (inactive); in test [14] it was > 100 µM (inactive); in test [15], > 100 µM (inactive); in test [16] it was > 100 µM (inactive); in test [17], 70.6 µM (inactive); in test [18] it was > 100 µM (inactive).

Regarding `CC(C)C[C@H]1[C@@H](OCc2ccccc2)COS(=O)N1[C@H](C)c1ccccc1` (stereo not given in full), the GI50 was 38.1 µM (inactive) in test [1]; 20.2 µM (inactive) in test [2]; 13.3 µM (inactive) in [3]; 37.8 µM (inactive) in test [4]; 4.85 µM (inactive) in test [5]; 12 µM (inactive) in [6]. The GI50 was 5.51 µM (inactive) in test [7]; 13.2 µM (inactive) in test [8]; 20.2 µM (inactive) in test [9]; 24.9 µM (inactive) in [10]; 18.7 µM (inactive) in [11]; 13.1 µM (inactive) in [19]. The GI50 in [12] is 4 µM (inactive); in [13], 15.7 µM (inactive); in test [14], 30.3 µM (inactive); in [15], 15.6 µM (inactive); in [17], 20.6 µM (inactive); in [18], 13.3 µM (inactive).

In the case of `C[C@H]1[C@@H](c2ccccc2)O[B-](c2ccccc2)(c2ccccc2)[N+]1(C)C`, the GI50 in test [1] was 33.5 µM (inactive); in [2], 34.3 µM (inactive); in test [3], > 100 µM (inactive); in test [4] it was 57 µM (inactive); in test [5], 49.7 µM (inactive); in test [6], 51.9 µM (inactive). The GI50 in [7] is 48.5 µM (inactive); in test [8] it was > 100 µM (inactive); in test [9], 21.4 µM (inactive); in test [10], 48.8 µM (inactive); in test [11] it was 76.7 µM (inactive); in test [19], 45.5 µM (inactive). In addition, the GI50 in test [12] is 32.6 µM (inactive); in [13] it was > 100 µM (inactive); in [14], > 100 µM (inactive); in [16], 21.5 µM (inactive); in test [17], 36.3 µM (inactive); in test [18], > 100 µM (inactive).

Turning to `C=CCC1=CC2(OC)C(=O)C(OC)(OC)C1C1C(OC)(OC)C(=O)C(OC)=CC12CC=C` (stereo not given), the GI50 is 49.9 µM (inactive) in test [1]; > 100 µM (inactive) in test [2]; > 100 µM (inactive) in test [3]; > 100 µM (inactive) in [4]; > 100 µM (inactive) in [5]; > 100 µM (inactive) in test [6]. Further, the GI50 in test [7], in [8], in test [20], in test [9], in test [10] and in [11] was > 100 µM (inactive) in each case. In addition, the GI50 in test [19], in test [12], in [13], in test [14], in [15] and in test [17] was > 100 µM (inactive) in each case. In addition, in test [18], the GI50 was > 100 µM (inactive).

`c1ccc(SCCP(CCP(c2ccccc2)c2ccccc2)c2ccccc2)cc1` (stereo not given): the GI50 in test [1] is 6.81 µM (inactive); in test [2] it was 7.26 µM (inactive); in test [3] it was 8.3 µM (inactive); in test [4], 3.41 µM (inactive); in [5], 1.89 µM (inactive); in [6], 4.61 µM (inactive). Further, the GI50 in [7] is 4.21 µM (inactive); in [8], 2.1 µM (inactive); in test [20], 14.1 µM (inactive); in test [9], 6.34 µM (inactive); in test [10], 7.52 µM (inactive); in test [11], 34.4 µM (inactive). In addition, the GI50 in [19] was 3.9 µM (inactive); in test [12], 5.46 µM (inactive); in [13], 3.07 µM (inactive); in test [14] it was 2.95 µM (inactive); in [15], 0.948 µM (active); in test [17], 12.1 µM (inactive). The GI50 in [18] is 1.89 µM (inactive).

With `CC/C(Cl)=N\OC(=O)Nc1ccc(OC)cc1`, the GI50 in [1] is 1.6 µM (inactive); in test [2], 1.65 µM (inactive); in test [3], 1.75 µM (inactive); in [4], 17.3 µM (inactive); in test [5] it was 5.86 µM (inactive); in [6] it was 14.4 µM (inactive). The GI50 in test [7] was 1.98 µM (inactive); in test [8] it was 15.1 µM (inactive); in test [20], 5.77 µM (inactive); in [9], 7.06 µM (inactive); in test [10] it was 6.14 µM (inactive); in test [11], 6.17 µM (inactive). For the same compound, the GI50 was 2.15 µM (inactive) in test [19]; 17 µM (inactive) in test [12]; 18.2 µM (inactive) in [13]; 24 µM (inactive) in test [14]; 6.27 µM (inactive) in test [15]; 5.43 µM (inactive) in [17]. In test [18], the GI50 was 19.5 µM (inactive).

`COc1ccc(N2C(=O)C3c4[nH]c5ccc(C)cc5c4C4CCC(C)CC4C3C2=O)cc1` (stereo not given): the GI50 in [1] is > 100 µM (inactive); in [2], > 100 µM (inactive); in test [3], 18.5 µM (inactive); in [4], > 100 µM (inactive); in test [5], 36.5 µM (inactive); in test [6], 4.65 µM (inactive). For the same compound, the GI50 in test [7] is 66.7 µM (inactive); in [9], 15.1 µM (inactive); in test [10] it was > 100 µM (inactive); in [11] it was 44.7 µM (inactive); in [19], 20.7 µM (inactive); in test [12], 27.1 µM (inactive). Besides, the GI50 is 33.3 µM (inactive) in test [13]; 61.2 µM (inactive) in test [14]; 23.2 µM (inactive) in test [16]; 34.4 µM (inactive) in test [17]; 53.7 µM (inactive) in test [18].

Turning to `Cc1ccc(C(=O)Nc2ccc(CP(=O)(O)O)cc2CP(=O)(O)O)cc1NC(=O)Nc1cc(C(=O)Nc2ccc(CP(=O)(O)O)cc2CP(=O)(O)O)ccc1C`, the GI50 in test [1], in test [2], in test [3], in test [4], in test [5] and in [6] was > 100 µM (inactive) each time. Besides, the GI50 was > 100 µM (inactive) in [7]; > 100 µM (inactive) in test [8]; 60.5 µM (inactive) in [20]; > 100 µM (inactive) in test [9]; > 100 µM (inactive) in [10]; > 100 µM (inactive) in test [11]. Moreover, the GI50 in test [19], in test [12], in test [13], in test [14], in test [15] and in test [17] was > 100 µM (inactive) throughout. Further, the GI50 in test [18] is > 100 µM (inactive).

For `CCN(CC)/C(Sc1ccccc1)=C(\C(Cl)=C(Cl)Cl)[N+](=O)[O-]`, the GI50 in test [1] was 15.8 µM (inactive); in test [2] it was 13 µM (inactive); in [3], 4.99 µM (inactive); in [4] it was 16.9 µM (inactive); in test [5], 16.4 µM (inactive); in test [6] it was 20.7 µM (inactive). Further, the GI50 in test [7] is 10.8 µM (inactive); in [8], 17.7 µM (inactive); in test [20], 14.9 µM (inactive); in test [9], 24.2 µM (inactive); in [10], 16.9 µM (inactive); in test [11], 24.9 µM (inactive). The GI50 in test [19] is 13.6 µM (inactive); in [12], 17.6 µM (inactive); in test [14], 20.6 µM (inactive); in [15], 20.4 µM (inactive); in test [17], 16.9 µM (inactive).

In the case of `CCCCCCCC(=O)O[C@H]1[C@H]2[C@@H](CC1(C)C)C(=O)[C@]13O[C@H]1C(=O)[C@]1(CO1)[C@]23C`, the GI50 in test [1] was 15.5 µM (inactive); in test [2] it was 2.62 µM (inactive); in test [3], 0.0615 µM (active); in test [4], 14.8 µM (inactive); in [6], 46 µM (inactive); in test [7], 0.573 µM (active). Moreover, the GI50 was 7.73 µM (inactive) in test [8]; 3.25 µM (inactive) in [20]; 25.5 µM (inactive) in test [9]; 8.95 µM (inactive) in test [10]; 2.22 µM (inactive) in test [19]; 15.8 µM (inactive) in test [12]. The GI50 was 3.7 µM (inactive) in test [13]; 17.7 µM (inactive) in [14]; 23.4 µM (inactive) in test [15]; 2.07 µM (inactive) in [16]; 2.75 µM (inactive) in test [17]; 7.83 µM (inactive) in test [18].

For the compound `CC(=O)Oc1cc(-c2oc3cc(OC(C)=O)c(C4OC(CO)C(O)C(O)C4O)c(OC(C)=O)c3c(=O)c2O)c(OC(C)=O)cc1O` (stereo not given), the GI50 is > 100 µM (inactive) in [1]; > 100 µM (inactive) in [2]; 89.9 µM (inactive) in test [3]; > 100 µM (inactive) in test [4]; > 100 µM (inactive) in test [5]; > 100 µM (inactive) in [6]. Also, the GI50 in test [7], in test [8], in test [20], in test [9], in [10] and in test [11] was > 100 µM (inactive) each time. In addition, the GI50 in test [19] is > 100 µM (inactive); in test [12], > 100 µM (inactive); in test [13] it was > 100 µM (inactive); in test [15], 60.4 µM (inactive); in [17], > 100 µM (inactive); in [18], > 100 µM (inactive).
